assay: log k′ (degree of lipophilic character) by gradient HPLC; assay type: physicochemical; conditions: XTerra MS C18 column; acetonitrile/pH6.8 buffer gradient 5:95-95:5/20 min
Protocol: As to each compound, the measurement results of NMR or log k′ were disclosed.
log k′ is a value which means degree of the lipophilic character, and is calculated by the following formula. log k′=log(tR−t0)/t0 • tR: retention time of compound under gradient condition • t0: retention time of standard material not retained in column
XTerra MS C18 5 μm, 2.1×100 mm column (made by Waters) was used for measurement. The elution was a straight line inclination of acetonitrile/pH6.8 buffer (5:95˜95:5/20 min) at flow velocity 0.25 mL/min.

SMILES	log k′
CC(C)COc1c(C(=O)NC2CCCCCCCCC2)cnn1/C=C/C(C)(C)C(N)=O [Compound I-2]	1.014
COC(=O)NC(C)(C)/C=C/n1ncc(C(=O)NC2CCCCCCCCC2)c1OCC(C)C [Compound I-3]	1.066
CC(=O)NC(C)(C)/C=C/n1ncc(C(=O)N[C@H]2C3CCCC2C[C@H](C(N)=O)C3)c1OCC(C)C [Compound I-5]	0.795
Cc1nnc(C(C)(C)/C=C/n2ncc(C(=O)N[C@H]3C4CC5CC3C[C@](OC(N)=O)(C5)C4)c2OCC(C)C)o1 [Compound I-8]	0.883
CC(=O)NC(C)(C)/C=C/n1ncc(C(=O)N[C@H]2C3CC4CC2C[C@](OC(N)=O)(C4)C3)c1OCC(C)C [Compound I-10]	0.798
CC(=O)NC(C)(C)CCn1ncc(C(=O)N[C@H]2C3CC4CC2C[C@](OC(N)=O)(C4)C3)c1OCC(C)C [Compound I-11]	0.831
CC(=O)NC(C)(C)/C=C/n1ncc(C(=O)NC23CCC(C(N)=O)(CC2)C3)c1OCC(C)C [Compound I-12]	0.763
COC(=O)NC(C)(C)/C=C/n1ncc(C(=O)NC23CCC(C(N)=O)(CC2)C3)c1OCC(C)C [Compound I-13]	0.822
C=CCC1C2CCC(C2)C1NC(=O)c1cnn(/C=C/C(C)(C)NC(C)=O)c1OCC(C)C (stereo not drawn) [Compound I-14]	0.981
CC(=O)NC(C)(C)CCn1ncc(C(=O)N[C@H]2C3CC4CC2C[C@](CO)(C4)C3)c1OCC(C)C [Compound I-16]	0.842
COC(=O)NC(C)(C)/C=C/n1ncc(C(=O)N[C@H]2C3CC4CC2C[C@](COC(N)=O)(C4)C3)c1OCC(C)C [Compound I-17]	0.916
CC(C)COc1c(C(=O)N[C@H]2C3CC4CC2C[C@](OC(N)=O)(C4)C3)cnn1/C=C/C(C)(C)C(=O)NC(N)=O [Compound I-18]	0.866
COC(=O)NC(C)(C)/C=C/n1ncc(C(=O)N[C@H]2C3CC4CC2C[C@](CO)(C4)C3)c1OCC(C)C [Compound I-19]	0.907
CCC(=O)N[C@]12CC3CC(C1)[C@@H](NC(=O)c1cnn(/C=C/C(C)(C)C(N)=O)c1OCC(C)C)C(C3)C2 [Compound I-20]	0.845
CCC(=O)N[C@]12CC3CC(C1)[C@@H](NC(=O)c1cnn(/C=C/C(C)(C)NC(=O)OC)c1OCC(C)C)C(C3)C2 [Compound I-21]	0.909
CC(C)COc1c(C(=O)N[C@H]2C3CC4CC2C[C@](OC(N)=O)(C4)C3)cnn1/C=C/C(C)(C)N1CCOC1=O [Compound I-22]	0.879
COC(=O)NC(C)(C)/C=C/n1ncc(C(=O)N[C@H]2C3CC4CC2C[C@](CO)(C4)C3)c1OC(C)C [Compound I-23]	0.864
CCC(=O)NC(C)(C)/C=C/n1ncc(C(=O)N[C@H]2C3CC4CC2C[C@](OC(N)=O)(C4)C3)c1OCC(C)C [Compound I-24]	0.876
CC(C)COc1c(C(=O)N[C@H]2C3CC4CC2C[C@](O)(C4)C3)cnn1/C=C/C(C)(C)NC(=O)C(C)C [Compound I-25]	0.87
CC(C)COc1c(C(=O)N[C@H]2C3CC4CC2C[C@](O)(C4)C3)cnn1/C=C/C(C)(C)NC(=O)CC(C)C [Compound I-26]	0.895
CC(C)COc1c(C(=O)N[C@H]2C3CC4CC2C[C@](OC(N)=O)(C4)C3)cnn1/C=C/C(C)(C)NC(=O)C(C)C [Compound I-27]	0.903
CC(C)COc1c(C(=O)N[C@H]2C3CC4CC2C[C@](OC(N)=O)(C4)C3)cnn1/C=C/C(C)(C)NC(=O)CC(C)C [Compound I-28]	0.927
CC(=O)NC(C)(C)/C=C/n1ncc(C(=O)N[C@H]2C3CC4CC2C[C@](CO)(C4)C3)c1OC(C)C [Compound I-31]	0.819

SMILES	log k′
COC(=O)NC(C)(C)/C=C/n1ncc(C(=O)N[C@H]2C3CCCC2C[C@@H](C#N)C3)c1OCC(C)C [Compound I-33]	0.955
CCCC(=O)NC(C)(C)/C=C/n1ncc(C(=O)N[C@H]2C3CC4CC2C[C@](O)(C4)C3)c1OCC(C)C [Compound I-34]	0.877
CC(C)COc1c(C(=O)N[C@H]2C3CC4CC2C[C@](O)(C4)C3)cnn1/C=C/C(C)(C)NC(=O)C1CCCC1 [Compound I-35]	0.921
CC(=O)NC(C)(C)/C=C/n1ncc(C(=O)N[C@H]2C3CCCC2C[C@@H](C(N)=O)C3)c1OCC(C)C [Compound I-42]	0.805
CC(=O)NC(C)(C)/C=C/n1ncc(C(=O)N[C@H]2C3CCCC2C[C@@H](CO)C3)c1OCC(C)C [Compound I-43]	0.851
CC(=O)NC(C)(C)/C=C/n1ncc(C(=O)N[C@H]2C3CCCC2C[C@@H](COC(N)=O)C3)c1OCC(C)C [Compound I-45]	0.865
COC(=O)NC(C)(C)/C=C/n1ncc(C(=O)N[C@H]2C3CCCC2C[C@@H](COC(N)=O)C3)c1OCC(C)C [Compound I-46]	0.913
CC(C)COc1c(C(=O)N[C@H]2C3CC4CC2C[C@](OC(N)=O)(C4)C3)cnn1/C=C/C(C)(C)NC(=O)C1CCCC1 [Compound I-49]	0.945
CC(C)COc1c(C(=O)N[C@H]2C3CC4CC2C[C@](OC(N)=O)(C4)C3)cnn1/C=C/C(C)(C)NC(=O)CCC1CCCC1 [Compound I-50]	0.989
COCC(=O)NC(C)(C)/C=C/n1ncc(C(=O)N[C@H]2C3CC4CC2C[C@](OC(N)=O)(C4)C3)c1OCC(C)C [Compound I-51]	0.882
COC(=O)N[C@]12CC3CC(C1)[C@@H](NC(=O)c1cnn(/C=C/C(C)(C)NC(C)=O)c1OCC(C)C)C(C3)C2 [Compound I-54]	0.886
CC(=O)NC[C@]12CC3CC(C1)[C@@H](NC(=O)c1cnn(/C=C/C(C)(C)NC(C)=O)c1OCC(C)C)C(C3)C2 [Compound I-56]	0.838
CC(=O)NC(C)(C)CCn1ncc(C(=O)N[C@H]2C3CC4CC2C[C@](COC(N)=O)(C4)C3)c1OCC(C)C [Compound I-57]	0.852
COC(=O)NC(C)(C)CCn1ncc(C(=O)N[C@H]2C3CC4CC2C[C@](COC(N)=O)(C4)C3)c1OCC(C)C [Compound I-58]	0.899
CCONC(=O)[C@]12CC3CC(C1)[C@@H](NC(=O)c1cnn(/C=C/C(C)(C)NC(C)=O)c1OCC(C)C)C(C3)C2 [Compound I-59]	0.833
CONC(=O)[C@]12CC3CC(C1)[C@@H](NC(=O)c1cnn(/C=C/C(C)(C)NC(C)=O)c1OCC(C)C)C(C3)C2 [Compound I-60]	0.813
CNC(=O)C(C)(C)/C=C/n1ncc(C(=O)N[C@H]2C3CC4CC2C[C@](OC(N)=O)(C4)C3)c1OCC(C)C [Compound I-61]	0.841
CONC(=O)C(C)(C)/C=C/n1ncc(C(=O)N[C@H]2C3CC4CC2C[C@](O)(C4)C3)c1OCC(C)C [Compound I-62]	0.794
CC(=O)NCC(C)(C)/C=C/n1ncc(C(=O)N[C@H]2C3CC4CC2C[C@](O)(C4)C3)c1OCC(C)C [Compound I-64]	0.814
CONC(=O)C(C)(C)/C=C/n1ncc(C(=O)N[C@H]2C3CC4CC2C[C@](OC(N)=O)(C4)C3)c1OCC(C)C [Compound I-65]	0.838
CNC(=O)OC[C@]12CC3CC(C1)[C@@H](NC(=O)c1cnn(/C=C/C(C)(C)NC(C)=O)c1OCC(C)C)C(C3)C2 [Compound I-66]	0.886
CC(=O)NC(C)(C)/C=C/n1ncc(C(=O)N[C@H]2C3CC4CC2C[C@](C(=O)NC(N)=O)(C4)C3)c1OCC(C)C [Compound I-67]	0.82
